Test results as given in patent US12161628B2, “Combination therapy” (Medivation Prostate Therapeutics LLC, priority 2015, dated 2024).
Several values for one entry are separate records, joined by “and”; a condition that tells them apart may be missing. Equal entries are not always repeated. Where two headings read alike, the source gives them in different places.

Experiments:
[1] = test system: CYP3A4; details: in vivo
Experimental: Data handling. […] In addition, for many subjects, urine samples taken post enzalutamide dose were not taken within 180 minutes of the ‘virtual’ enzalutamide dosing time (i.e., day 1 enzalutamide dosing time [enzalutamide treatment arm{treatment arm 1}] and day 8 enzalutamide dosing time [enzalutamide+rifampin treatment arm {treatment arm 2}]) and/or pre-dose of rifampin. The 6β-hydroxycortisol and cortisol concentrations of these urine samples and obtained 6β-hydroxycortisol/cortisol ratios were excluded from summary statistics.

[2] = clinical; details: human, in vivo; for Vd/F: Vz/F
Experimental: (§1) For all subjects in the rifampin treatment arm, the last quantifiable enzalutamide concentration was measured prior to the end of the rifampin dosing period (up to 13 days after enzalutamide dosing).
(§2) It should be noted that AUCs could only be accurately determined for 4 subjects in the enzalutamide treatment arm (treatment arm 1) and 6 subjects in the enzalutamide+rifampin treatment arm (treatment arm 2).

[3] = human, in vivo
Experimental: as §1, §2

[4] = Drug-drug interaction trial: plasma pharmacokinetics of enzalutamide, M1, M2 and sum of enzalutamide plus M2 after single 160 mg enzalutamide alone or with multiple doses of rifampin; details: for MPR (MWC): metabolite versus parent ratio (molecular weight corrected), Mean: based on AUCinf;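 on all read-outs here: human plasma pharmacokinetics in a two-arm drug interaction trial comparing enzalutamide given alone against enzalutamide given with rifampin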
Experimental: as §1, §2

[5] = Rifampin plasma pharmacokinetics on day 8 after multiple doses of 600 mg once daily; format: in vivo, human (healthy volunteers); details: multiple doses of 600 mg rifampin once daily; for AUC / concentration at 2 h / Cmax / Tmax: human, plasma, oral, 600 mg
Experimental: Data handling. The actual sampling time of enzalutamide and its metabolites for 6 subjects (7 samples in total), and the actual sampling time of the 2-hour rifampin sample of subject 10002 on Day 21 deviated more than 10% of the scheduled time point.
In FIG. 7, individual and mean rifampin C2H plasma concentrations that were obtained during the entire dosing period of 21 days are presented.
Median tmax was reached 2 hours post-dose.

[6] = plasma, Enzalutamide (Reference), single 160 mg dose alone
[7] = plasma, single dose 160 mg enzalutamide alone
[8] = plasma, single dose 160 mg enzalutamide in the presence of multiple doses of 600 mg rifampin once daily (Test)

CNC(=O)c1ccc(N2C(=S)N(c3ccc(C#N)c(C(F)(F)F)c3)C(=O)C2(C)C)cc1F [Enzalutamide, 4-{3-[4-cyano-3-(trifluoromethyl)phenyl]-5,5-dimethyl-4-oxo-2-sulfanylideneimidazolidin-1-yl}-2-fluoro-N-methylbenzamide]
Inductive effect on CYP3A4 (pharmacodynamic assessment) [1]: minimal inductive effect
AUC(0-inf) [2]: 86.9 µg·h/mL
AUC(0-t) [2]: 86.8 µg·h/mL
Cmax [2]: 4520 ng/mL
AUC(0-t) ([2]; 160 mg, AUC0-336h, Mean): 239 µg·h/mL
AUC(0-t) ([2]; 160 mg, AUC0-336h, Median): 233 µg·h/mL
AUC(0-t) ([2]; 160 mg, AUC0-t, Mean): 258 µg·h/mL
AUC(0-t) ([2]; 160 mg, AUC0-t, Median): 254 µg·h/mL
AUC(0-inf) ([2]; 160 mg, AUCinf, Geometric LS Mean): 257 µg·h/mL
AUC(0-inf) ([2]; 160 mg, AUCinf, Mean): 262 µg·h/mL
AUC(0-inf) ([2]; 160 mg, AUCinf, Median): 259 µg·h/mL
Cmax ([2]; 160 mg, Cmax, Geometric LS Mean): 4860 ng/mL
Cmax ([2]; 160 mg, Cmax, Mean): 4930 ng/mL
Cmax ([2]; 160 mg, Cmax, Median): 5140 ng/mL
Vd/F ([2]; 160 mg, Mean): 79.8 L
Vd/F ([2]; 160 mg, Median): 78.1 L
half-life ([2]; 160 mg, t1/2, Mean): 90.1 h
half-life ([2]; 160 mg, t1/2, Median): 85.7 h
Tmax ([2]; 160 mg, Mean): 1.08 h
Tmax ([2]; 160 mg, Median): 0.91 h
AUC0-336hr lower in the presence of rifampin [3]: 63%
AUCinf lower in the presence of rifampin [3]: 66%
% AUC (percentage extrapolated), range of individual values ([3]; 160 mg): 0.658-4.56%
CL/F, Mean ([3]; 160 mg): 0.6330 L/h
CL/F, Median ([3]; 160 mg): 0.6184 L/h

CC1(C)C(=O)N(c2ccc(C#N)c(C(F)(F)F)c2)C(=S)N1c1ccc(C(=O)O)c(F)c1 [M1]
AUC0-336hr lower in the presence of rifampin [3]: 15%
AUCinf lower in the presence of rifampin [3]: 32%
AUC0-336h, Mean ([3]; 160 mg): 32.49 µg·h/mL
AUC0-336h, Median ([3]; 160 mg): 31.38 µg·h/mL
AUC0-t, Mean ([3]; 160 mg): 47.87 µg·h/mL
AUC0-t, Median ([3]; 160 mg): 46.66 µg·h/mL
AUCinf, Geometric LS Mean ([3]; 160 mg): 59.62 µg·h/mL
AUCinf, Mean ([3]; 160 mg): 62.14 µg·h/mL
AUCinf, Median ([3]; 160 mg): 57.39 µg·h/mL
Cmax, Geometric LS Mean ([3]; 160 mg): 134.6 ng/mL
Cmax, Mean ([3]; 160 mg): 141.4 ng/mL
Cmax, Median ([3]; 160 mg): 135 ng/mL
t1/2, Mean ([3]; 160 mg): 223.9 h
t1/2, Median ([3]; 160 mg): 236.6 h

CC1(C)C(=O)N(c2ccc(C#N)c(C(F)(F)F)c2)C(=S)N1c1ccc(C(N)=O)c(F)c1 [M2, N-desmethyl enzalutamide]
AUC0-336hr higher in the presence of rifampin ([4]; compared to enzalutamide alone): 15%
AUCinf lower in the presence of rifampin ([4]; compared to enzalutamide alone): 15%
Cmax higher in the presence of rifampin ([4]; compared to enzalutamide alone): 34%
AUCinf, Geometric LS Mean [4, 6]: 349.3 µg·h/mL
Cmax, Geometric LS Mean [4, 6]: 737 ng/mL
AUC0-336h, Mean [4, 7]: 197.6 µg·h/mL
AUC0-336h, Median [4, 7]: 184.1 µg·h/mL
AUC0-t, Mean [4, 7]: 344.3 µg·h/mL
AUC0-t, Median [4, 7]: 338.3 µg·h/mL
AUCinf, Mean [4, 7]: 354.0 µg·h/mL
AUCinf, Median [4, 7]: 351.0 µg·h/mL
Cmax, Mean [4, 7]: 754.6 ng/mL
Cmax, Median [4, 7]: 714.5 ng/mL
MPR (MWC): metabolite versus parent ratio (molecular weight corrected), Median [4, 7]: 1.373
t1/2, Mean [4, 7]: 190.4 h
t1/2, Median [4, 7]: 182.1 h
tmax, Mean [4, 7]: 161.3 h
MPR (MWC): metabolite versus parent ratio (molecular weight corrected), Mean [4, 7]: 1.385 and 1.431
AUC0-336h, Mean [4, 8]: 224.0 µg·h/mL
AUC0-336h, Median [4, 8]: 221.9 µg·h/mL
AUC0-t, Mean [4, 8]: 292.1 µg·h/mL
AUC0-t, Median [4, 8]: 293.5 µg·h/mL
AUCinf, Mean [4, 8]: 297.9 µg·h/mL
AUCinf, Median [4, 8]: 299.4 µg·h/mL
Cmax, Mean [4, 8]: 994.9 ng/mL
Cmax, Median [4, 8]: 1010 ng/mL
MPR (MWC): metabolite versus parent ratio (molecular weight corrected), Median [4, 8]: 3.372
t1/2, Mean [4, 8]: 154.7 h
t1/2, Median [4, 8]: 152.5 h
tmax, Mean [4, 8]: 66.75 h
tmax, Median [4, 8]: 71.86 h
MPR (MWC): metabolite versus parent ratio (molecular weight corrected), Mean [4, 8]: 3.443 and 3.558

CO[C@H]1/C=C/O[C@@]2(C)Oc3c(C)c(O)c4c(O)c(c(/C=N/N5CCN(C)CC5)c(O)c4c3C2=O)NC(=O)/C(C)=C\C=C\[C@H](C)[C@H](O)[C@@H](C)[C@@H](O)[C@@H](C)[C@H](OC(C)=O)[C@@H]1C [Rifampin, rifampin]
AUC ([5]; read-out: AUCtau, Mean): 35.6 µg·h/mL
AUC ([5]; read-out: AUCtau, Median): 35.2 µg·h/mL
concentration at 2 h ([5]; read-out: C2h, Mean): 6760 ng/mL
concentration at 2 h ([5]; read-out: C2h, Median): 6620 ng/mL
Cmax ([5]; read-out: Cmax, Mean): 7160 ng/mL
Cmax ([5]; read-out: Cmax, Median): 7040 ng/mL
Tmax ([5]; read-out: tmax, Mean): 1.72 h
Tmax ([5]; read-out: tmax, Median): 2 h
Cmin, Mean [5]: 0 ng/mL
